Here are results for 13 molecules from US12157746B2, “Tetrahydro-1H-pyrazino[2,1-a]isoindolylquinoline compounds for the treatment of autoimmune disease” (F. HOFFMANN-LA ROCHE AG, priority 2018, dated 2024).

Data set [1] is described as follows: Human microsomal stability assay. It is filed as in vitro ADME. Particulars: human liver microsomes 0.5 mg/mL, 37° C., pH 7.4, NADPH regenerating system, 0-30 minutes. Put shortly:
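Human liver microsomes (0.5 mg/mL) with […] compound in 100 mM potassium phosphate, pH 7.4, 37° C; reaction started with NADPH regenerating system after 10 min preincubation. Parent remaining at 0–30 min quantified by LC-MS/MS; clearance binned low (<7.0), medium (7.0-16.2) or high (16.2-23.2) mL/min/kg.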

For a further data set, the target named is T1, human TLR8 (Homo sapiens, UniProt Q9NR97).
T1 sequence (Q9NR97 27-1041): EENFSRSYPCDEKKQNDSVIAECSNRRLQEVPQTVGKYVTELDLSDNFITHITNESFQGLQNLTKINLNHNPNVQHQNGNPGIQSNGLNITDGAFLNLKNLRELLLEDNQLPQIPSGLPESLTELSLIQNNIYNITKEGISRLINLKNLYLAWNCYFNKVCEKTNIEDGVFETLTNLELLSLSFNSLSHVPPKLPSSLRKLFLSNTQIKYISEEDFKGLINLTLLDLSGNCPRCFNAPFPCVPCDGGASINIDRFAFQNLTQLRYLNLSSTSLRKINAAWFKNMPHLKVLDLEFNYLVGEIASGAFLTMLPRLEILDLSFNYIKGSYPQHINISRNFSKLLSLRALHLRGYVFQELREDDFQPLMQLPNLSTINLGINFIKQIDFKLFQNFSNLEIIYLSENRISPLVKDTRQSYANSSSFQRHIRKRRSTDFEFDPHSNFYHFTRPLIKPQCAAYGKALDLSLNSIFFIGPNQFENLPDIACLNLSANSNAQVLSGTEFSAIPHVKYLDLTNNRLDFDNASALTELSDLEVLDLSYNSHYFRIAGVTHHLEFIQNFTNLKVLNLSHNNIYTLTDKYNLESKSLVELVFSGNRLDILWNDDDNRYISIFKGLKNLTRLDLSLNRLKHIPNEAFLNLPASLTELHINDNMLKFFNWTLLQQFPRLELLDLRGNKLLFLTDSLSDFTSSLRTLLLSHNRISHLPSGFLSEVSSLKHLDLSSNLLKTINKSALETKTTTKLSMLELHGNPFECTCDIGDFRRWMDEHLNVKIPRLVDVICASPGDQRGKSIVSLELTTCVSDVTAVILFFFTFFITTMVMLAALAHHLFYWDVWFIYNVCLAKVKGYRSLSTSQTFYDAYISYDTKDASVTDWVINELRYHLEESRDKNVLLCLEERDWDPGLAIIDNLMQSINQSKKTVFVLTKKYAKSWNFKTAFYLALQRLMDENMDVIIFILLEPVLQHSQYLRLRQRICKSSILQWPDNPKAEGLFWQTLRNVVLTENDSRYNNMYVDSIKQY
As to the kind of experiment: HEK293-Blue-hTLR-8 cells assay. It counts as cell-based. Particulars: HEK293-Blue-hTLR8 cells, R848 stimulation, 20 hrs, SEAP reporter; read-out: HEK/hTLR8 IC50. Put shortly:
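Antagonism read out in HEK293-Blue-hTLR8 cells carrying an NF-κB/AP-1-driven SEAP reporter, stimulated with R848 (10 μL of 60 uM stock added) alongside serially diluted compound (1% DMSO), 20 h at 37° C. Supernatant SEAP measured with QUANTI-Blue after 2 h at 37° C, absorbance at 620-655 nm.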

As to `C[C@@H]1CN(c2ccc(C#N)c3ncccc23)C[C@@H]2c3ccc(C(=O)N4CCC(C)(N)CC4)cc3CN12` [Example 88, 5-[(4R,10bS)-8-(4-amino-4-methyl-piperidine-1-carbonyl)-4-methyl-3,4,6,10b-tetrahydro-1H-pyrazino[2,1-a]isoindol-2-yl]quinoline-8-carbonitrile], in data set [1], the “CL (h)” value turned out to be 6.2 mL/min/kg. Moreover, on human TLR8, the IC50 was found to be 0.7 nM.

With `N#Cc1ccc(N2CCN3Cc4cc(N5CCNCC5)ccc4C3C2)c2cccnc12` (centres unmarked) [Example 3, 5-(8-piperazin-1-yl-3,4,6,10b-tetrahydro-1H-pyrazino[2,1-a]isoindol-2-yl)quinoline-8-carbonitrile], in data set [1], the “CL (h)” value stood at 6.2 mL/min/kg. For the same molecule, the IC50 on human TLR8 was below 3.2 nM.

`Cc1ccc(N2C[C@@H](C)N3Cc4cc(N[C@H]5CNC[C@H]5F)ccc4[C@H]3C2)c2cccnc12` [Example 75, (4R,10bS)—N-[(3S,4R)-4-fluoropyrrolidin-3-yl]-4-methyl-2-(8-methyl-5-quinolyl)-3,4,6,10b-tetrahydro-1H-pyrazino[2,1-a]isoindol-8-amine]: the “CL (h)” value in data set [1] stood at 6.2 mL/min/kg. For the same molecule, the IC50 at human TLR8 came out at 12.4 nM.

In the case of `C[C@@H]1CN(c2ccc(C#N)c3ncccc23)C[C@@H]2c3ccc(NCCN4CC[C@H](O)C4)cc3CN12` [Example 68, 5-[(4R,10bS)-8-[2-[(3S)-3-hydroxypyrrolidin-1-yl]ethylamino]-4-methyl-3,4,6,10b-tetrahydro-1H-pyrazino[2,1-a]isoindol-2-yl]quinoline-8-carbonitrile], the “CL (h)” value in data set [1] turned out to be 7.9 mL/min/kg. The IC50 on human TLR8 is below 3.2 nM.

Turning to `C[C@H]1CN(c2ccc(C#N)c3ncccc23)C[C@H]2c3ccc(N4CCNCC4)cc3CN12` [Example 2, 5-[(4S,10bR)-4-methyl-8-piperazin-1-yl-3,4,6,10b-tetrahydro-1H-pyrazino[2,1-a]isoindol-2-yl]quinoline-8-carbonitrile], in data set [1], the “CL (h)” value is 6.8 mL/min/kg. Moreover, the IC50 on human TLR8 is below 3.2 nM.

As for `C[C@@H]1CN(c2ccc(C#N)c3ncccc23)C[C@@H]2c3ccc(NCC4(F)CNC4)cc3CN12` [Example 69, 5-[(4R,10bS)-8-[(3-fluoroazetidin-3-yl)methylamino]-4-methyl-3,4,6,10b-tetrahydro-1H-pyrazino[2,1-a]isoindol-2-yl]quinoline-8-carbonitrile], the “CL (h)” value in data set [1] is 8.4 mL/min/kg. Moreover, at human TLR8, the IC50 is below 3.2 nM.

For the molecule `C[C@@H]1CN(c2ccc(C#N)c3ncccc23)C[C@@H]2c3ccc(N[C@@H]4CCCNC4)cc3CN12` [Example 65, 5-[(4R,10bS)-4-methyl-8-[[(3R)-3-piperidyl]amino]-3,4,6,10b-tetrahydro-1H-pyrazino[2,1-a]isoindol-2-yl]quinoline-8-carbonitrile], the “CL (h)” value in data set [1] is given as 6.2 mL/min/kg. The IC50 on human TLR8 was below 3.2 nM.

As for `C[C@@H]1CN(c2ccc(C#N)c3ncccc23)C[C@@H]2c3cc(F)c(N4CC5CNCC(C4)O5)cc3CN12` [Example 85, 5-[(4R,10bS)-9-fluoro-4-methyl-8-(9-oxa-3,7-diazabicyclo[3.3.1]nonan-3-yl)-3,4,6,10b-tetrahydro-1H-pyrazino[2,1-a]isoindol-2-yl]quinoline-8-carbonitrile], in data set [1], the “CL (h)” value was determined as 7.8 mL/min/kg. Besides, the IC50 at human TLR8 was 9.2 nM.

`CO[C@H]1CNC[C@H]1Nc1ccc2c(c1)CN1[C@H](C)CN(c3ccc(C#N)c4ncccc34)C[C@H]21` [Example 61, 5-[(4R,10bS)-8-[[(3R,4S)-4-methoxypyrrolidin-3-yl]amino]-4-methyl-3,4,6,10b-tetrahydro-1H-pyrazino[2,1-a]isoindol-2-yl]quinoline-8-carbonitrile]: the “CL (h)” value in data set [1] is 7.3 mL/min/kg. For the same molecule, on human TLR8, the IC50 is below 3.2 nM.

For the molecule `C[C@@H]1CN(c2ccc(Cl)c3ncccc23)C[C@@H]2c3ccc(N[C@H]4CNC[C@H]4F)cc3CN12` [Example 79, (4R,10b)-2-(8-chloro-5-quinolyl)-N-[(3S,4R)-4-fluoropyrrolidin-3-yl]-4-methyl-3,4,6,10b-tetrahydro-1H-pyrazino[2,1-a]isoindol-8-amine], in data set [1], the “CL (h)” value stood at 6.2 mL/min/kg. Further, the IC50 on human TLR8 was 2.8 nM.

With `CO[C@H]1CNC[C@@H]1Nc1ccc2c(c1)CN1[C@H](C)CN(c3ccc(C#N)c4ncccc34)C[C@H]21` [Example 62, 5-[(4R,10bS)-8-[[(3S,4S)-4-methoxypyrrolidin-3-yl]amino]-4-methyl-3,4,6,10b-tetrahydro-1H-pyrazino[2,1-a]isoindol-2-yl]quinoline-8-carbonitrile], the “CL (h)” value in data set [1] was 7.5 mL/min/kg. Also, the IC50 at human TLR8 is below 3.2 nM.

Consider `CO[C@@H]1CNC[C@@H]1Nc1ccc2c(c1)CN1[C@H](C)CN(c3ccc(C#N)c4ncccc34)C[C@H]21` [Example 60, 5-[(4R,10bS)-8-[[(3S,4R)-4-methoxypyrrolidin-3-yl]amino]-4-methyl-3,4,6,10b-tetrahydro-1H-pyrazino[2,1-a]isoindol-2-yl]quinoline-8-carbonitrile], for which, in data set [1], the “CL (h)” value was determined as 7.4 mL/min/kg. The IC50 on human TLR8 is below 3.2 nM.

For `C[C@@H]1CN(c2ccc(C#N)c3ncccc23)C[C@@H]2c3ccc(N4CCNCC4)cc3CN12` [Example 1, 5-[(4R,10bS)-4-methyl-8-piperazin-1-yl-3,4,6,10b-tetrahydro-1H-pyrazino[2,1-a]isoindol-2-yl]quinoline-8-carbonitrile], the “CL (h)” value in data set [1] stood at 6.8 mL/min/kg. Moreover, the IC50 at human TLR8 was below 3.2 nM.
